From patent publication US20230168243A1, “METHODS FOR DIAGNOSING IMMEDIATE HYPERSENSITIVY REACTION” (Universiteit Antwerpen, priority 2020, published 2023)

Key:
[1] = test system: cultured human donor mast cells (dMCs); assay: Mast cell activation test (MAT): CD63 upregulation on donor mast cells passively sensitized with patients' sera (dMCIgE+), flow cytometry; assay type: cell-based; conditions: for up-regulation of CD63 (% of the cells): donor MCs passively sensitized with serum containing chlorhexidine-reactive IgE antibodies, FIG. 7; for CD63 upregulated after activation / CD63 upregulation: dMCIgE+ sensitized with patients' sera, mean; for CD63 upregulated after activation: first donor, 20 min; for CD63 upregulation: second donor
Experimental: Human MCs were cultured as described in Cop N, et al. Influence of IL-6, IL-33, and TNF-alpha on human mast cell activation: Lessons from single cell analysis by flow cytometry. Cytometry B Clin Cytom 2018; 94:405-11. Briefly, peripheral blood mononuclear cells were isolated from 50 mL peripheral blood from healthy volunteers. CD34^+ progenitor cells were enriched using the EasySep Human CD34 Selection Kit (Stemcell Technologies, Vancouver, Canada) according to the manufacturer's instructions. Isolated CD34^+ progenitor cells were cultured in a serum-free methylcellulose-based medium (MethoCult SF H4236, Stemcell Technologies) supplemented with penicillin (100 units/mL, Life Technologies, Waltham, USA), streptomycin (100 μg/mL, Life Technologies), low-density lipoprotein (LDL, 10 μg/mL, Stemcell Technologies), 2-mercaptoethanol (55 μmol/L, Life Technologies), stem cell factor (SCF, 100 ng/mL, Miltenyi Biotec, Bergisch Gladbach, Germany), interleukin-3 (IL-3, 100 ng/mL, PeproTech, Rocky Hill, USA) and interleukin-6 (IL-6, 50 ng/mL, Miltenyi Biotec) during 4-5 weeks. Participants gave a written informed consent as approved by the Ethical Committee of the University Hospital of Antwerp (Belgium B300201316408).
Degranulation of dMC was measured by overnight passively sensitizing the cells with serum at 37° C. in a humidified CO2-incubator. Next, dMC^IgE+ were centrifuged (500 g, 5 minutes, 20° C.) and the cell pellet was resolved in pre-warmed Tyrode's buffer (Sigma-Aldrich, St. Louis, USA) at a concentration of 0.5×10^6 cells/mL. Thereafter, 100 μL of the cells were pre-incubated with IL-33 (100 ng/mL) (Peprotech) for 20 minutes on 37° C. Subsequently, these pre-incubated dMC^IgE+ were stimulated with 100 μL Tyrode's buffer as a negative control or 100 μL of CHX (Sigma-Aldrich) during 20 minutes at 37° C. The final concentrations of CHX were: 0.05, 5, 500, 50 000 ng/mL, i.e. 0.0028, 0.28, 28; 2800 nM). Reactions were stopped by placing the cells on ice and removing the supernatants (500 g, 5 minutes, 4° C.). Cells were stained with monoclonal anti-human CD117-APC (clone 104D2, BD Biosciences, Erembodegem, Belgium), CD203c-PeCy7 (clone NP4D6, eBioscience) and CD63-FITC (clone H5C6, BD Bioscience) for 20 minutes at 4° C. Finally, cells were washed and resolved in PBS with 0.1% sodium azide and measured. Degranulation of dMCs was measured as surface upregulation of the lysosomal degranulation marker CD63. The mast cell activation test is repeated on dMCs of two different volunteers.
Flow cytometric analysis was performed on a FACSCanto II flow cytometer (BD Immunocytometry Systems, San Jose, Calif.) equipped with three lasers (405 nm, 488 nm and 633 nm). Correct compensation settings for antibodies conjugated with fluorochromes were performed using BD CompBeads (BD Biosciences). Flow cytometric data were analyzed using Kaluza Analysis 1.5 software (Beckman Coulter, USA). Unstained samples were used to set a marker between positive and negative cells according to the 99th percentile. A fluorescence minus one (FMO) was used to set a marker between positive and negative cells. Mast cells were gated out as CD117 and CD203c positive cells. Results are expressed as mean and range.
Human MCs were obtained as described in Example 1. Sera from patients with perioperative anaphylaxis were selected based on the presence of sIgE against rocuronium >0.13 kUa/L and a positive skin test rocuronium. MC activation was determined as described in Example 1 and cells were stimulated during 3 and 20 minutes, preferably 20 minutes, with final concentrations of rocuronium of 1.64, 16.4, 164 and 1640 μM.
Human MCs were obtained as described in Example 1.

[2] = test system: cultured human donor mast cells (dMCs); assay: Direct mast cell activation: CD63 upregulation on donor mast cells not passively sensitized with serum (dMCIgE-); assay type: cell-based; conditions: for CD63 upregulation / activation of unsensitized (unloaded) mast cells: MCs not passively sensitized with patients' serum

| SMILES | up-regulation of CD63 (% of the cells) [1] | CD63 upregulation / activation of unsensitized (unloaded) mast cells [2] | CD63 upregulation (degranulation) ([1]; dMC sensitized with sera of patients with isolated sIgE CHX (negative skin test and BAT)) | CD63 upregulated after activation ([1]; CHX 0.05 ng/mL (0.0028 nM), printed range 1-22) | CD63 upregulated after activation ([1]; CHX 5 ng/mL (0.28 nM), printed range 1-76) | CD63 upregulated after activation ([1]; CHX 500 ng/mL (28 nM), printed range 6-86) | CD63 upregulated after activation ([1]; CHX 50000 ng/mL (2800 nM), printed range 0-88) | CD63 upregulation ([1]; CHX 0.05 ng/mL (0.0028 nM), printed range 0-21) | CD63 upregulation ([1]; CHX 5 ng/mL (0.28 nM), printed range 2-44) | CD63 upregulation ([1]; CHX 500 ng/mL (28 nM), printed range 3-64) | CD63 upregulation ([1]; CHX 50000 ng/mL (2800 nM), printed range 0-73) | CD63 upregulation / activation of unsensitized (unloaded) mast cells ([2]; listed as CHX) | CD63 upregulation after stimulation ([1]; dMCIgE+ sensitized with serum of a rocuronium-allergic patient, rocuronium end concentration 164 μM, representative plot FIG. 6) | CD63 upregulation after stimulation ([2]; dMCIgE- not passively sensitized, rocuronium end concentration 164 μM, representative plot FIG. 6) |
| --- | --- | --- | --- | --- | --- | --- | --- | --- | --- | --- | --- | --- | --- | --- |
| CCCCCCCCN=c1ccn(CCCCCCCCCCn2ccc(=NCCCCCCCC)cc2)cc1 [octenidine] | 18% | did not upregulate CD63 | – | – | – | – | – | – | – | – | – | – | – | – |
| [H]/N=C(\N/C(=N/[H])NCCCCCCNC(=N)NC(=N)Nc1ccc(Cl)cc1)Nc1ccc(Cl)cc1 [chlorhexidine, 1:6-di(4-chlorophenyldiguanido)-hexane] | 18% | did not upregulate CD63 | no upregulation of CD63 | 1% | 10% | 57% | 31% | 2% | 7% | 30% | 45% | could not elicit activation/degranulation | – | – |
| C=CC[N+]1([C@H]2C[C@H]3[C@@H]4CC[C@H]5C[C@H](O)[C@@H](N6CCOCC6)C[C@]5(C)[C@H]4CC[C@]3(C)[C@H]2OC(C)=O)CCCC1 [rocuronium] | – | – | – | – | – | – | – | – | – | – | – | – | 24% | 0% |
